Measurements published in the supplement of paper PMC10307832.

Key:
Assay in all cases: relative viability (nuclei count vs DMSO), 5 days (fraction); higher = more cells survive
CAL-12T = tested on: CAL-12T
Summary of the method: (§1)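 Lung cancer cell lines in 1536-well plates were dosed by pin tool the day after seeding, either with one drug alone or with a fixed anchor-drug dose plus five library-drug doses (not always all listed) in √10 steps. After 5 days, cells were fixed and their nuclei stained in one step (final 0.05% Triton X-100, 1% formaldehyde, 1 ug/ml Hoechst), then counted on 4× images. Relative viability is the nuclei count in treated wells divided by that in vehicle wells. Values are medians of duplicate plates.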

SK-LU-1 = tested on: SK-LU-1
Summary of the method: as §1

NCI-H1437 = tested on: NCI-H1437
Summary of the method: as §1

NCI-H2342 = tested on: NCI-H2342
Summary of the method: as §1

NCI-H441 = tested on: NCI-H441
Summary of the method: as §1

COR-L23 = tested on: COR-L23
Summary of the method: as §1

NCI-H460 = tested on: NCI-H460
Summary of the method: as §1

LU99A = tested on: LU99A
Summary of the method: as §1

NCI-H1793 = tested on: NCI-H1793
Summary of the method: as §1

NCI-H1650 = tested on: NCI-H1650
Summary of the method: as §1

NCI-H1355 = tested on: NCI-H1355
Summary of the method: as §1

NCI-H838 = tested on: NCI-H838
Summary of the method: as §1

NCI-H2085 = tested on: NCI-H2085
Summary of the method: as §1

NCI-H1975 = tested on: NCI-H1975
Summary of the method: as §1

NCI-H1563 = tested on: NCI-H1563
Summary of the method: as §1

NCI-H1734 = tested on: NCI-H1734
Summary of the method: as §1

NCI-H1651 = tested on: NCI-H1651
Summary of the method: as §1

NCI-H358 = tested on: NCI-H358
Summary of the method: as §1

BEN = tested on: BEN
Summary of the method: as §1

HCC-366 = tested on: HCC-366
Summary of the method: as §1

LOU-NH91 = tested on: LOU-NH91
Summary of the method: as §1

NCI-H2023 = tested on: NCI-H2023
Summary of the method: as §1

O=c1cc(N2CCOCC2)oc2c(-c3cccc4c3sc3ccccc34)cccc12 + N=C(N)NC(=N)NCCc1ccccc1 [Phenformin] (partner 250 µM)
relative viability (CAL-12T; first compound 0.01 µM): 0.519
relative viability (CAL-12T; first compound 0.03162 µM): 0.629
relative viability (CAL-12T; first compound 0.1 µM): 0.607
relative viability (CAL-12T; first compound 0.3162 µM): 0.575
relative viability (CAL-12T; first compound 1 µM): 0.547
relative viability (SK-LU-1; first compound 0.01 µM): 0.573
relative viability (SK-LU-1; first compound 0.03162 µM): 0.551
relative viability (SK-LU-1; first compound 0.1 µM): 0.531
relative viability (SK-LU-1; first compound 0.3162 µM): 0.509
relative viability (SK-LU-1; first compound 1 µM): 0.45
relative viability (NCI-H1437; first compound 0.01 µM): 0.32
relative viability (NCI-H1437; first compound 0.03162 µM): 0.323
relative viability (NCI-H1437; first compound 0.1 µM): 0.298
relative viability (NCI-H1437; first compound 0.3162 µM): 0.338
relative viability (NCI-H1437; first compound 1 µM): 0.282
relative viability (NCI-H2342; first compound 0.01 µM): 0.575
relative viability (NCI-H2342; first compound 0.03162 µM): 0.59
relative viability (NCI-H2342; first compound 0.1 µM): 0.601
relative viability (NCI-H2342; first compound 0.3162 µM): 0.621
relative viability (NCI-H2342; first compound 1 µM): 0.576
relative viability (NCI-H441; first compound 0.01 µM): 0.862
relative viability (NCI-H441; first compound 0.03162 µM): 0.805
relative viability (NCI-H441; first compound 0.1 µM): 0.861
relative viability (NCI-H441; first compound 0.3162 µM): 0.811
relative viability (NCI-H441; first compound 1 µM): 0.771
relative viability (COR-L23; first compound 0.01 µM): 0.439
relative viability (COR-L23; first compound 0.03162 µM): 0.466
relative viability (COR-L23; first compound 0.1 µM): 0.43
relative viability (COR-L23; first compound 0.3162 µM): 0.411
relative viability (COR-L23; first compound 1 µM): 0.449
relative viability (NCI-H460; first compound 0.01 µM): 0.285
relative viability (NCI-H460; first compound 0.03162 µM): 0.522
relative viability (NCI-H460; first compound 0.1 µM): 0.558
relative viability (NCI-H460; first compound 0.3162 µM): 0.505
relative viability (NCI-H460; first compound 1 µM): 0.544
relative viability (LU99A; first compound 0.01 µM): 0.558
relative viability (LU99A; first compound 0.03162 µM): 0.833
relative viability (LU99A; first compound 0.1 µM): 0.925
relative viability (LU99A; first compound 0.3162 µM): 0.833
relative viability (LU99A; first compound 1 µM): 0.887
relative viability (NCI-H1793; first compound 0.01 µM): 0.386
relative viability (NCI-H1793; first compound 0.1 µM): 0.345
relative viability (NCI-H1793; first compound 0.3162 µM): 0.375
relative viability (NCI-H1793; first compound 1 µM): 0.363
relative viability (NCI-H1650; first compound 0.01 µM): 0.352
relative viability (NCI-H1650; first compound 0.03162 µM): 0.48
relative viability (NCI-H1650; first compound 0.1 µM): 0.346
relative viability (NCI-H1650; first compound 0.3162 µM): 0.449
relative viability (NCI-H1650; first compound 1 µM): 0.362
relative viability (NCI-H1355; first compound 0.01 µM): 0.45
relative viability (NCI-H1355; first compound 0.03162 µM): 0.446
relative viability (NCI-H1355; first compound 0.1 µM): 0.316
relative viability (NCI-H1355; first compound 0.3162 µM): 0.447
relative viability (NCI-H1355; first compound 1 µM): 0.42
relative viability (NCI-H838; first compound 0.01 µM): 0.473
relative viability (NCI-H838; first compound 0.03162 µM): 0.547
relative viability (NCI-H838; first compound 0.1 µM): 0.534
relative viability (NCI-H838; first compound 0.3162 µM): 0.6
relative viability (NCI-H838; first compound 1 µM): 0.543
relative viability (NCI-H2085; first compound 0.01 µM): 0.713
relative viability (NCI-H2085; first compound 0.03162 µM): 0.708
relative viability (NCI-H2085; first compound 0.1 µM): 0.625
relative viability (NCI-H2085; first compound 0.3162 µM): 0.745
relative viability (NCI-H2085; first compound 1 µM): 0.734
relative viability (NCI-H1975; first compound 0.01 µM): 0.414
relative viability (NCI-H1975; first compound 0.03162 µM): 0.439
relative viability (NCI-H1975; first compound 0.1 µM): 0.408
relative viability (NCI-H1975; first compound 0.3162 µM): 0.397
relative viability (NCI-H1975; first compound 1 µM): 0.418
relative viability (NCI-H1563; first compound 0.01 µM): 0.644
relative viability (NCI-H1563; first compound 0.03162 µM): 0.733
relative viability (NCI-H1563; first compound 0.1 µM): 0.635
relative viability (NCI-H1563; first compound 0.3162 µM): 0.671
relative viability (NCI-H1563; first compound 1 µM): 0.612
relative viability (NCI-H1734; first compound 0.01 µM): 0.379
relative viability (NCI-H1734; first compound 0.03162 µM): 0.379
relative viability (NCI-H1734; first compound 0.1 µM): 0.403
relative viability (NCI-H1734; first compound 0.3162 µM): 0.388
relative viability (NCI-H1734; first compound 1 µM): 0.352
relative viability (NCI-H1651; first compound 0.01 µM): 0.315
relative viability (NCI-H1651; first compound 0.03162 µM): 0.366
relative viability (NCI-H1651; first compound 0.1 µM): 0.352
relative viability (NCI-H1651; first compound 0.3162 µM): 0.345
relative viability (NCI-H1651; first compound 1 µM): 0.333
relative viability (NCI-H358; first compound 0.01 µM): 0.339
relative viability (NCI-H358; first compound 0.03162 µM): 0.35
relative viability (NCI-H358; first compound 0.1 µM): 0.351
relative viability (NCI-H358; first compound 0.3162 µM): 0.325
relative viability (NCI-H358; first compound 1 µM): 0.322
relative viability (BEN; first compound 0.01 µM): 0.241
relative viability (BEN; first compound 0.03162 µM): 0.305
relative viability (BEN; first compound 0.1 µM): 0.27
relative viability (BEN; first compound 0.3162 µM): 0.271
relative viability (BEN; first compound 1 µM): 0.292
relative viability (HCC-366; first compound 0.01 µM): 0.608
relative viability (HCC-366; first compound 0.03162 µM): 0.697
relative viability (HCC-366; first compound 0.1 µM): 0.661
relative viability (HCC-366; first compound 0.3162 µM): 0.601
relative viability (HCC-366; first compound 1 µM): 0.668
relative viability (LOU-NH91; first compound 0.01 µM): 0.58
relative viability (LOU-NH91; first compound 0.03162 µM): 0.688
relative viability (LOU-NH91; first compound 0.1 µM): 0.689
relative viability (LOU-NH91; first compound 0.3162 µM): 0.791
relative viability (LOU-NH91; first compound 1 µM): 0.618
relative viability (NCI-H2023; first compound 0.01 µM): 0.424
relative viability (NCI-H2023; first compound 0.03162 µM): 0.397
relative viability (NCI-H2023; first compound 0.1 µM): 0.482
relative viability (NCI-H2023; first compound 0.3162 µM): 0.425
relative viability (NCI-H2023; first compound 1 µM): 0.385
